Usually IC50 stands for the midpoint of a concentration-inhibition curve. A lower IC50 goes with greater potency in that assay.

Structures are written as SMILES. Counter-ions that a name gives are not always drawn.

The target of one assay is Cbl-b (Homo sapiens (Human), UniProt Q13191). As to the kind of experiment: Cbl-b LCK Ub TR-FRET assay (Cbl-b Lck HTRF). In kind it is biochemical. The essentials:
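TR-FRET (340 nm excitation, 615/665 nm emission) read after adding HA-ubiquitin–UBE2D2 thioester, anti-HA-D2 and streptavidin-Eu. Beforehand, compounds incubated 60 min with biotinylated Cbl-b, then 90 min with His-LCK and ATP (1 mM in 2× mix); IC50 from 10 concentrations, DMSO high and no-LCK low controls.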

The target in a further assay is c-Cbl (Homo sapiens (Human), UniProt P22681). Kind of assay: C-Cbl LCK Ub TR-FRET assay (c-cbl Lck HTRF). Format: biochemical. The note with it: for (fold-selectivity): C-cbl Lck HTRF IC50 relative to Cbl-b Lck HTRF IC50. The method in brief: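 Signal is read once the detection mix has stood 20 min at ambient temperature. Curves are anchored by DMSO as maximum and by omission of LCK as minimum.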
Sequence of c-Cbl (P22681 47-435): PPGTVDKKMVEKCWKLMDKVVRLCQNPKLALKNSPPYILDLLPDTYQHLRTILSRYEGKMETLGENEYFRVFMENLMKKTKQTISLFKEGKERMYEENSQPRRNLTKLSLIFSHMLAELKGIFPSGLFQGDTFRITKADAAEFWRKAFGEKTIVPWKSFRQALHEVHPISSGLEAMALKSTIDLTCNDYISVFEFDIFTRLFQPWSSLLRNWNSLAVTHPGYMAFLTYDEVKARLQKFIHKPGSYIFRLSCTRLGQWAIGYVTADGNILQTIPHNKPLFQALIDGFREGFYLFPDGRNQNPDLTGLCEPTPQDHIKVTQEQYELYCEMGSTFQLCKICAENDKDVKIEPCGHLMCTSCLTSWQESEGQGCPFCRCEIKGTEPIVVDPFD
On the technique in general: Time-resolved FRET reads energy transfer from a long-lived donor to a nearby acceptor.

Sequence of Cbl-b (Q13191 40-426): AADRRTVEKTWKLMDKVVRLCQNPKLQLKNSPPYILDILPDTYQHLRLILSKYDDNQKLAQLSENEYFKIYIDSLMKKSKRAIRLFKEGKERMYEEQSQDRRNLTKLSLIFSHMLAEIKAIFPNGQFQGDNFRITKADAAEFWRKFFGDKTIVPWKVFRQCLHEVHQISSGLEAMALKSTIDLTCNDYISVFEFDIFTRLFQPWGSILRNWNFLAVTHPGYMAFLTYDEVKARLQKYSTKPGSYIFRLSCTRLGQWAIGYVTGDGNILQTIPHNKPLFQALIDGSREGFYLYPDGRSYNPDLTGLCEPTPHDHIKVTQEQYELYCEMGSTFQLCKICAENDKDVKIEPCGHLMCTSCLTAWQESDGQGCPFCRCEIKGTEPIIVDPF

As for `CC(=O)N1CCN(Cc2cc3c(c(C(F)(F)F)c2)CN(c2cccc(C4([C@@H](F)c5nncn5C)COC4)c2)C3=O)[C@@H](C(C)C)C1` [Compound 193, 6-(((S)-4-acetyl-2-isopropylpiperazin-1-yl)methyl)-2-(3-(3-((R)-fluoro(4-methyl-4H-1,2,4-triazol-3-yl)methyl)oxetan-3-yl)phenyl)-4-(trifluoromethyl)isoindolin-1-one], on Cbl-b, the 50% inhibitory concentration (IC50) was 72 nM. For the same compound, at c-Cbl, the 50% inhibitory concentration (IC50) was determined as 190 nM and the “(fold-selectivity)” value was found to be 2.6x.

Take `CC[C@H]1CN(Cc2cc3c(c(C(F)(F)F)c2)CN(c2cccc(C4(Cc5nncn5C)CC(F)(F)C4)c2)C3=O)CCN1C` [Compound 421, (S)-2-(3-(3,3-difluoro-1-((4-methyl-4H-1,2,4-triazol-3-yl)methyl)cyclobutyl)phenyl)-6-((3-ethyl-4-methylpiperazin-1-yl)methyl)-4-(trifluoromethyl)isoindolin-1-one]: half-maximal inhibition on Cbl-b (IC50) required 15 nM. In addition, on c-Cbl, the midpoint of inhibition, the IC50, lay at 11 nM and the “(fold-selectivity)” value is on record as “(0.72x)”.

Regarding `CO[C@H]1CCN(Cc2cc3c(c(C(F)(F)F)c2)CN(c2cccc(C4([C@@H](F)c5nncn5C)COC4)c2)C3=O)C1` [Compound 131, 2-(3-(3-((R)-fluoro(4-methyl-4H-1,2,4-triazol-3-yl)methyl)oxetan-3-yl)phenyl)-6-(((S)-3-methoxypyrrolidin-1-yl)methyl)-4-(trifluoromethyl)isoindolin-1-one], 59 nM corresponded to half-maximal inhibition against Cbl-b (IC50). At c-Cbl, the IC50 stood at 170 nM and the “(fold-selectivity)” value came out at 2.9x.

As for `Cn1cnnc1CC1(c2cc(OC3CCCC3)nc(N3Cc4c(cc(CNC5(C)CCC5)cc4C(F)(F)F)C3=O)c2)COC1` [Compound 294, 2-(6-(cyclopentyloxy)-4-(3-((4-methyl-4H-1,2,4-triazol-3-yl)methyl)oxetan-3-yl)pyridin-2-yl)-6-(((1-methylcyclobutyl)amino)methyl)-4-(trifluoromethyl)isoindolin-1-one], the IC50 against Cbl-b is 9.5 nM; on c-Cbl it was 16 nM. Besides, the “(fold-selectivity)” value on c-Cbl is on record as “(1.7x)”.

In turn, `CC(C)[C@H]1CN(C)CCN1C(C)c1cc2c(c(C(F)(F)F)c1)CN(c1cccc(C3([C@@H](F)c4nncn4C)CC(F)(F)C3)c1)C2=O` (stereo partly drawn) [Compound 388, 2-(3-(3,3-difluoro-1-((R)-fluoro(4-methyl-4H-1,2,4-triazol-3-yl)methyl)cyclobutyl)phenyl)-6-(1-((S)-2-isopropyl-4-methylpiperazin-1-yl)ethyl)-4-(trifluoromethyl)isoindolin-1-one] showed an IC50 against Cbl-b of 46 nM. Besides, on c-Cbl, half-maximal inhibition (IC50) was put at 63 nM and the “(fold-selectivity)” value is “(1.4x)”.

In turn, `Cn1cnnc1[C@@H](F)C1(c2cccc(N3Cc4c(cc(CN5CC6(CCO6)C5)cc4C(F)(F)F)C3=O)c2)COC1` [Compound 140, (S)-6-(1-oxa-6-azaspiro[3.3]heptan-6-ylmethyl)-2-(3-(3-(fluoro(4-methyl-4H-1,2,4-triazol-3-yl)methyl)oxetan-3-yl)phenyl)-4-(trifluoromethyl)isoindolin-1-one] yielded an IC50 on Cbl-b of 380 nM. Moreover, on c-Cbl, the IC50 stood at 970 nM and the “(fold-selectivity)” value is 2.8x.

The compound `C[C@H]1CN(Cc2cc3c(c(C(F)(F)F)c2)CN(c2cccc(C4(Cc5nncn5C)CC(F)(F)C4)c2)C3=O)CCN1` [Compound 425, (S)-2-(3-(3,3-difluoro-1-((4-methyl-4H-1,2,4-triazol-3-yl)methyl)cyclobutyl)phenyl)-6-((3-methylpiperazin-1-yl)methyl)-4-(trifluoromethyl)isoindolin-1-one] registered an IC50 on Cbl-b of 32 nM. Besides, on c-Cbl, inhibition was half-maximal at 22 nM (IC50) and the “(fold-selectivity)” value is reported as “(0.68x)”.

For `CC(C)C1(O)CN(Cc2cc3c(c(C(F)(F)F)c2)CN(c2cccc(C4([C@@H](F)c5nncn5C)COC4)c2)C3=O)C1` [Compound 183, (R)-2-(3-(3-(fluoro(4-methyl-4H-1,2,4-triazol-3-yl)methyl)oxetan-3-yl)phenyl)-6-((3-hydroxy-3-isopropylazetidin-1-yl)methyl)-4-(trifluoromethyl)isoindolin-1-one], the IC50 against Cbl-b stood at 57 nM; on c-Cbl it was 120 nM. For the same compound, the “(fold-selectivity)” value on c-Cbl stood at 2.2x.

Compound `CC(C)[C@H]1CN(Cc2cc3c(c(C(F)(F)F)c2)CN(c2cccc(C4([C@@H](F)c5nncn5C)COC4)c2)C3=O)CCN1` [Compound 90, 2-(3-(3((R)-fluoro(4-methyl-4H-1,2,4-triazol-3-yl)methyl)oxetan-3-yl)phenyl)-6-(((S)-3-isopropylpiperazin-1-yl)methyl)-4-(trifluoromethyl)isoindolin-1-one] showed a half-maximal inhibitory concentration (IC50) against Cbl-b of 42 nM. Besides, at c-Cbl, the IC50 amounted to 58 nM and the “(fold-selectivity)” value was found to be 1.4x.

In the case of `CC[C@@H](C)Nc1cc(C2(Cc3nncn3C)COC2)cc(N2Cc3c(cccc3C(F)(F)F)C2=O)n1` [Compound 482, (R)-2-(6-(sec-butylamino)-4-(3-((4-methyl-4H-1,2,4-triazol-3-yl)methyl)oxetan-3-yl)pyridin-2-yl)-4-(trifluoromethyl)isoindolin-1-one], the IC50 is 210 nM on Cbl-b and 410 nM against c-Cbl. The “(fold-selectivity)” value on c-Cbl was “(1.9x)”.

`Cn1cnnc1CC1(c2cc(NCCCN3CCOCC3)nc(N3Cc4c(cc(CNC5(C)CCC5)cc4C(F)(F)F)C3=O)c2)CCC1` [Compound 303, 2-(4-(1-((4-methyl-4H-1,2,4-triazol-3-yl)methyl)cyclobutyl)-6-((3-morpholinopropyl)amino)pyridin-2-yl)-6-(((1-methylcyclobutyl)amino)methyl)-4-(trifluoromethyl)isoindolin-1-one]: at Cbl-b, inhibition was half-maximal at 310 nM (IC50). For the same compound, at c-Cbl, the half-maximal inhibitory concentration (IC50) was 190 nM and the “(fold-selectivity)” value is “(0.59x)”.

Regarding `CC(C)[C@H]1CN(CCF)CCN1Cc1cc2c(c(C(F)(F)F)c1)CN(c1cccc(C3([C@H](F)c4nncn4C)COC3)c1)C2=O` [Compound 198, 2-(3-(3-((S)-fluoro(4-methyl-4H-1,2,4-triazol-3-yl)methyl)oxetan-3-yl)phenyl)-6-(((S)-4-(2-fluoroethyl)-2-isopropylpiperazin-1-yl)methyl)-4-(trifluoromethyl)isoindolin-1-one], at Cbl-b, 14 nM corresponded to half-maximal inhibition (IC50). Further, at c-Cbl, the IC50 was 21 nM and the “(fold-selectivity)” value was 1.5x.

At Cbl-b, `CCSc1cc(C2(Cc3nncn3C)CCC2)cc(N2Cc3c(cc(CNC4(C)CCC4)cc3C(F)(F)F)C2=O)n1` [Compound 286, 2-(6-(ethylthio)-4-(1-((4-methyl-4H-1,2,4-triazol-3-yl)methyl)cyclobutyl)pyridin-2-yl)-6-(((1-methylcyclobutyl)amino)methyl)-4-(trifluoromethyl)isoindolin-1-one] had an IC50 of 6.8 nM. Besides, on c-Cbl, the IC50 was 4.9 nM and the “(fold-selectivity)” value was “(0.73x)”.

The compound `Cn1cnnc1[C@@H](F)C1(c2cccc(N3Cc4c(cc(CN5CC(C)(O)C5)cc4C(F)(F)F)C3=O)c2)CC1` (single isomer, unassigned) [Compound 29] showed a concentration for half-maximal inhibition (IC50) on Cbl-b of 120 nM. At c-Cbl, the concentration for half-maximal inhibition (IC50) was 230 nM and the “(fold-selectivity)” value came out at 1.8x.

For the compound `Cn1cnnc1CC1(c2cc(NCCc3ccncc3)nc(N3Cc4c(cc(CNC5(C)CCC5)cc4C(F)(F)F)C3=O)c2)CCC1` [Compound 321, 2-(4-(1-((4-methyl-4H-1,2,4-triazol-3-yl)methyl)cyclobutyl)-6-((2-(pyridin-4-yl)ethyl)amino)pyridin-2-yl)-6-(((1-methylcyclobutyl)amino)methyl)-4-(trifluoromethyl)isoindolin-1-one], the half-inhibitory concentration (IC50) at Cbl-b is 18 nM. Also, on c-Cbl, it took 23 nM to reach half-maximal inhibition (IC50) and the “(fold-selectivity)” value is reported as “(1.3x)”.

`Cn1cnnc1CC1(c2cc(NCCN3CCOCC3)nc(N3Cc4c(cc(CNC5(C)CCC5)cc4C(F)(F)F)C3=O)c2)CCC1` [Compound 340, 2-(4-(1-((4-methyl-4H-1,2,4-triazol-3-yl)methyl)cyclobutyl)-6-((2-morpholinoethyl)amino)pyridin-2-yl)-6-(((1-methylcyclobutyl)amino)methyl)-4-(trifluoromethyl)isoindolin-1-one] yielded a concentration for half-maximal inhibition (IC50) at Cbl-b of 440 nM. For the same compound, at c-Cbl, the IC50 was 320 nM and the “(fold-selectivity)” value is recorded as “(0.74x)”.

Take `Cn1cnnc1[C@H](F)C1(c2cccc(N3Cc4c(cc(CNCCCF)cc4C(F)(F)F)C3=O)c2)COC1` [Compound 231, (R)-2-(3-(3-(fluoro(4-methyl-4H-1,2,4-triazol-3-yl)methyl)oxetan-3-yl)phenyl)-6-(((3-fluoropropyl)amino)methyl)-4-(trifluoromethyl)isoindolin-1-one]: on Cbl-b, the IC50 worked out at 9.8 nM. Moreover, at c-Cbl, it took 81 nM to reach half-maximal inhibition (IC50) and the “(fold-selectivity)” value was “(0.82x)”.

Turning to `CNc1cc(C2(Cc3nncn3C)CCC2)cc(N2Cc3c(cc(CNC4(C)CCC4)cc3C(F)(F)F)C2=O)n1` [Compound 310, 2-(4-(1-((4-methyl-4H-1,2,4-triazol-3-yl)methyl)cyclobutyl)-6-(methylamino)pyridin-2-yl)-6-(((1-methylcyclobutyl)amino)methyl)-4-(trifluoromethyl)isoindolin-1-one formate], the IC50 is 10 nM against Cbl-b and 11 nM against c-Cbl.

Regarding `Cn1cnnc1[C@H](F)C1(c2cccc(N3Cc4c(cc([C@@H](N)CC5CC5)cc4C(F)(F)F)C3=O)c2)COC1` [Compound 389, 6-((S)-1-amino-2-cyclopropylethyl)-2-(3-(3-((R)-fluoro(4-methyl-4H-1,2,4-triazol-3-yl)methyl)oxetan-3-yl)phenyl)-4-(trifluoromethyl)isoindolin-1-one], half-maximal inhibition on Cbl-b (IC50) required 9.6 nM. Besides, on c-Cbl, the concentration for half-maximal inhibition (IC50) stood at 14 nM and the “(fold-selectivity)” value was “(1.4x)”.

The values above are taken from patent publication US20250230147A1, “LACTAMS AS CBL-B INHIBITORS” (Genentech, Inc., priority 2021, published 2025).
